Results taken from patent US11820773B2, “Tricyclic compounds” (ALIGOS THERAPEUTICS, INC., priority 2020, dated 2023).

System: HBV
Assay: HBV-DNA antiviral assay using HepG2.117 cells (intracellular HBV DNA by qPCR)
Format: cell-based, genotype D HBV
Details: Hepatitis B virus, 72 h, HBV DNA inhibition, 3 days incubation, 2% DMSO
Method: The following assay procedure describes the HBV antiviral assay, using HepG2.117 cells, which carry a stably integrated genotype D HBV genome under the control of a Tet-off promoter, and intracellular HBV DNA quantification as endpoint. Cell viability is assessed in parallel by measuring the intracellular ATP content using CellTiter-Glo 2.0 (Promega).
On day 0, HepG2.117 cells (which are maintained in routine cell culture with doxycycline present in the medium at a final concentration of 1 μg/mL) were seeded in 96-well plates (white with clear bottom) at a density of 2.0×10^4 cells/well (0.1 mL/well) in medium without doxycycline to induce pgRNA transcription and subsequent formation of HBV particles. The cells were incubated at 37° C. and 5% CO2.
On day 1, medium was removed from each well, the test articles were diluted in culture medium without doxcycyline and 100 μL was added to cell culture wells (9 concentrations, 4-fold dilution). For each plate, 6 untreated (merely DMSO) wells were included. The final concentration of DMSO in the culture medium was 2%. Each plate was prepared in duplicate (one for HBV DNA extraction, one for CellTiter-Glo 2.0 measurement). The cells were incubated at 37° C. and 5% CO2 for 3 days.
On day 4, cell viability was assessed using CellTiter-Glo 2.0 and cell lysates were prepared for HBV DNA extraction and subsequent quantification by qPCR.
HBV DNA Quantification by qPCR
Medium was removed from each well and 100 μL of 0.33% NP-40 in H2O was added to each well. Plates were sealed, incubated at 4° C. for 5 mins, vortexed extensively and centrifuged briefly. Next, 35 μL of lysate was added to 65 μL QuickExtract DNA Extraction Solution (Epicentre) in a PCR plate for each well. PCR plate was incubated at 65° C. for 6 mins, 98° C. for 2 mins and finally cooled to 4° C. HBV DNA was then quantified by qPCR with HBV-specific primers and probes as specified in Table 1 using the Bio-Rad SSOAdvanced Universal Probes Supermix on a CFX96 machine (Bio-Rad). The PCR cycle program consisted of 95° C. for 3 mins, followed by 40 cycles at 95° C. for 10 sec and 60° C. for 30 sec.
A DNA standard was prepared by dilution of an IDT gBlock corresponding to the amplicon with concentrations ranging from 10^2 to 10^8 copies/input (i.e. per 4 μL) and used to generate a standard curve by plotting Cq values vs. HBV DNA standard concentration. The quantity of HBV DNA in each sample was determined by interpolating from the standard curve.
Cell viability was calculated as follows: % Cell viability=(luminescence value of test sample)/(average luminescence value of 2% DMSO control)×100%. HBV DNA inhibition was calculated as follows: 100−(HBV DNA copy number of test sample)/(average HBV DNA copy number of 2% DMSO control)×100%. No normalization to entecavir was required due to the excellent dynamic window of this assay. The CC50, EC50 and EC90 values were determined by dose-response curves fitted by GraphPad Prism using “log (agonist) vs. response—Variable slope”.

First: CNC(=O)c1ccc(-n2c(=O)c3c(n4ncc(CC(C)C)c24)CN(C(=O)c2ccc(Cl)c(C(F)(F)F)c2)[C@@H](C)C3)cc1 (stereo in doubt) [Compound 54b, N-methyl-4-[rac-(11S)-12-[4-chloro-3-(trifluoromethyl)benzoyl]-5-isobutyl-11-methyl-8-oxo-2,3,7,12-tetrazatricyclo[7.4.0.0^2,6]trideca-1(9),3,5-trien-7-yl]benzamide]
Second: Cc1nn[nH]c1-c1ccc(-n2c(=O)c3c(n4ncc(CC(C)C)c24)CN(C(=O)c2ccc(Cl)c(C(F)(F)F)c2)[C@@H](C)C3)cc1 (stereo in doubt) [Compound 63b, rac-(11S)-12-[4-chloro-3-(trifluoromethyl)benzoyl]-5-isobutyl-11-methyl-7-[4-(4-methyl-1H-triazol-5-yl)phenyl]-2,3,7,12-tetrazatricyclo[7.4.0.0^2,6]trideca-1(9),3,5-trien-8-one]
The EC50 of the first is lower: 50 to 500 nM for the first, 500 to 5000 nM for the second.

Compared with CNC(=O)c1ccc(-n2c(=O)c3c(n4ncc(Cc5ccccc5)c24)CN(C(=O)c2ccc(Br)c(C(F)(F)F)c2)[C@@H](C)C3)nc1 (stereo in doubt) [Compound 109b, N-methyl-6-[rac-(11S)-5-benzyl-12-[4-bromo-3-(trifluoromethyl)benzoyl]-11-methyl-8-oxo-2,3,7,12-tetrazatricyclo[7.4.0.0^2,6]trideca-1(9),3,5-trien-7-yl]pyridine-3-carboxamide], C[C@@H]1Cc2c(n3ncc(Cc4ccccc4)c3n(-c3ccc(-c4nnn[nH]4)cc3)c2=O)CN1C(=O)c1ccc(Br)c(C(F)(F)F)c1 (stereo in doubt) [Compound 71a, rac-(11R)-5-benzyl-12-[4-bromo-3-(trifluoromethyl)benzoyl]-11-methyl-7-[4-(1H-tetrazol-5-yl)phenyl]-2,3,7,12-tetrazatricyclo[7.4.0.0^2,6]trideca-1(9),3,5-trien-8-one] is higher in EC50: less than 50 nM for the first, 500 to 5000 nM for the second.

First: C[C@@H]1Cc2c(n3ncc(CC4CCC4)c3n(-c3ccc(-c4nncn4C)cc3)c2=O)CN1C(=O)c1ccc(Cl)c(C(F)(F)F)c1 (stereo in doubt) [Compound 51a, rac-(11R)-12-[4-chloro-3-(trifluoromethyl)benzoyl]-5-(cyclobutylmethyl)-11-methyl-7-[4-(4-methyl-1,2,4-triazol-3-yl)phenyl]-2,3,7,12-tetrazatricyclo[7.4.0.0^2,6]trideca-1(9),3,5-trien-8-one]
Second: C[C@H]1Cc2c(n3ncc(CC4CCC4)c3n(-c3ccc(-c4nncn4C)cc3)c2=O)CN1C(=O)c1ccc(Cl)c(C(F)(F)F)c1 (stereo in doubt) [Compound 51b, rac-(11S)-12-[4-chloro-3-(trifluoromethyl)benzoyl]-5-(cyclobutylmethyl)-11-methyl-7-[4-(4-methyl-1,2,4-triazol-3-yl)phenyl]-2,3,7,12-tetrazatricyclo[7.4.0.0^2,6]trideca-1(9),3,5-trien-8-one]
The EC50 of the first is lower: less than 50 nM for the first, 500 to 5000 nM for the second. The first is the more potent here.

First: C[C@@H]1Cc2c(n3ncc(CC4CC4)c3n(-c3ccc(-c4nncn4C)cc3)c2=O)CN1C(=O)c1ccc(Br)c(C(F)(F)F)c1 (stereo in doubt) [Compound 40a, rac-(11R)-12-[4-bromo-3-(trifluoromethyl)benzoyl]-5-(cyclopropylmethyl)-11-methyl-7-[4-(4-methyl-1,2,4-triazol-3-yl)phenyl]-2,3,7,12-tetrazatricyclo[7.4.0.0^2,6]trideca-1(9),3,5-trien-8-one]
Second: CC(C)Cc1cnn2c3c(c(=O)n(-c4ccc(-c5cnnn5C)cc4)c12)C[C@H](C)N(C(=O)c1ccc(Br)c(C(F)(F)F)c1)C3 (stereo in doubt) [Compound 102b, rac-(11S)-12-[4-bromo-3-(trifluoromethyl)benzoyl]-5-isobutyl-11-methyl-7-[4-(3-methyltriazol-4-yl)phenyl]-2,3,7,12-tetrazatricyclo[7.4.0.0^2,6]trideca-1(9),3,5-trien-8-one]
The EC50 of the first is lower: less than 50 nM for the first, 50 to 500 nM for the second.

Going from C[C@H]1Cc2c(n3ncc(CC4CC4)c3n(-c3ccc(C(=O)N(C)COC(=O)CN)cc3)c2=O)CN1C(=O)c1ccc(Br)c(C(F)(F)F)c1 (racemic) [Compound 97, [methyl-[4-[rac-(11S)-12-[4-bromo-3-(trifluoromethyl)benzoyl]-5-(cyclopropylmethyl)-11-methyl-8-oxo-2,3,7,12-tetrazatricyclo[7.4.0.0^2,6]trideca-1(9),3,5-trien-7-yl]benzoyl]amino]methyl 2-aminoacetate] to Cc1cnn(-c2ccc(-n3c(=O)c4c(n5ncc(CC(C)C)c35)CN(C(=O)c3ccc(Br)c(C(F)(F)F)c3)[C@H](C)C4)cc2)n1 (stereo in doubt) [Compound 99a, rac-(11R)-12-[4-bromo-3-(trifluoromethyl)benzoyl]-5-isobutyl-11-methyl-7-[4-(4-methyltriazol-2-yl)phenyl]-2,3,7,12-tetrazatricyclo[7.4.0.0^2,6]trideca-1(9),3,5-trien-8-one], the EC50 falls from greater than 5000 nM to less than 50 nM.

Cc1nn[nH]c1-c1ccc(-n2c(=O)c3c(n4ncc(CC(C)C)c24)CN(C(=O)c2ccc(Br)c(Cl)c2)[C@H](C)C3)cc1 (stereo in doubt) [Compound 64a, rac-(11R)-12-(4-bromo-3-chloro-benzoyl)-5-isobutyl-11-methyl-7-[4-(4-methyl-1H-triazol-5-yl)phenyl]-2,3,7,12-tetrazatricyclo[7.4.0.0^2,6]trideca-1(9),3,5-trien-8-one] and Cc1nn[nH]c1-c1ccc(-n2c(=O)c3c(n4ncc(CC(C)C)c24)CN(C(=O)c2ccc(Cl)c(C(F)(F)F)c2)[C@H](C)C3)cc1 (stereo in doubt) [Compound 63a, rac-(11R)-12-[4-chloro-3-(trifluoromethyl)benzoyl]-5-isobutyl-11-methyl-7-[4-(4-methyl-1H-triazol-5-yl)phenyl]-2,3,7,12-tetrazatricyclo[7.4.0.0^2,6]trideca-1(9),3,5-trien-8-one] cannot be ordered by EC50: less than 50 nM for the first, less than 50 nM for the second.

CNC(=O)c1cc(-n2c(=O)c3c(n4ncc(Cc5ccccc5)c24)CN(C(=O)c2ccc(Br)c(C(F)(F)F)c2)CC3)nn1C [Compound 29, 5-[5-benzyl-12-[4-bromo-3-(trifluoromethyl)benzoyl]-8-oxo-2,3,7,12-tetrazatricyclo[7.4.0.0^2,6]trideca-1(9),3,5-trien-7-yl]-N,2-dimethyl-pyrazole-3-carboxamide] and CNc1nnc2cc(-n3c(=O)c4c(n5ncc(Cc6ccccc6)c35)CN(C(=O)c3ccc(Br)c(Cl)c3)CC4)ccn12 [Compound 23, 5-benzyl-12-(4-bromo-3-chloro-benzoyl)-7-[3-(methylamino)-[1,2,4]triazolo[4,3-a]pyridin-7-yl]-2,3,7,12-tetrazatricyclo[7.4.0.0^2,6]trideca-1(9),3,5-trien-8-one] cannot be ordered by EC50: less than 50 nM for the first, less than 50 nM for the second.

First: C[C@@H]1Cc2c(n3ncc(Cc4ccccc4)c3n(-c3ccc(-n4ccc(C(F)(F)F)n4)cc3)c2=O)CN1C(=O)c1ccc(Br)c(C(F)(F)F)c1 (stereo in doubt) [Compound 70a, rac-(11R)-5-benzyl-12-[4-bromo-3-(trifluoromethyl)benzoyl]-11-methyl-7-[4-[3-(trifluoromethyl)pyrazol-1-yl]phenyl]-2,3,7,12-tetrazatricyclo[7.4.0.0^2,6]trideca-1(9),3,5-trien-8-one]
Second: C[C@H]1Cc2c(n3ncc(Cc4ccccc4)c3n(-c3ccc(-n4nnnc4C(F)(F)F)cc3)c2=O)CN1C(=O)c1ccc(Br)c(C(F)(F)F)c1 (stereo in doubt) [Compound 92b, rac-(11S)-5-benzyl-12-[4-bromo-3-(trifluoromethyl)benzoyl]-11-methyl-7-[4-[5-(trifluoromethyl)tetrazol-1-yl]phenyl]-2,3,7,12-tetrazatricyclo[7.4.0.0^2,6]trideca-1(9),3,5-trien-8-one]
The EC50 of the first is lower: 50 to 500 nM for the first, greater than 5000 nM for the second. The first is the more potent here.

For Cc1nnc(-c2ccc(-n3c(=O)c4c(n5ncc(Cc6ccccc6)c35)CN(C(=O)c3ccc(Cl)c(C(F)(F)F)c3)[C@H](C)C4)cc2)[nH]1 (stereo in doubt) [Compound 52a, rac-(11R)-5-benzyl-12-[4-chloro-3-(trifluoromethyl)benzoyl]-11-methyl-7-[4-(5-methyl-4H-1,2,4-triazol-3-yl)phenyl]-2,3,7,12-tetrazatricyclo[7.4.0.0^2,6]trideca-1(9),3,5-trien-8-one], the EC50 was less than 50 nM.
